Reference: article PMC10850145, “Hormonal steroids induce multidrug resistance and stress response genes in Neisseria gonorrhoeae by binding to MtrR” (Nature Communications, 2024)
“And” between values parts separate entries of the source, which are not always exact repeats. Equal values may be shown once. Read-outs that look alike come from different tables or passages of the source.

How the values were obtained:
FA19-rpoH-lacZ = experiment: Gonococcal growth in liquid culture (GC broth) with hormones (Fig S7)
ngo1249-lacZ expression = experiment: β-galactosidase assay, ngo1249-lacZ fusion (negative control gene); details: WT-NGO1249-lacZ
[1] = test system: mutant strain JF1 (ΔmtrR); experiment: Antimicrobial susceptibility spot assay with hormone plus antibiotic, JF1 (ΔmtrR); format: cell-based, Neisseria gonorrhoeae; details: derivative lacking MtrR (JF1), azithromycin
Experimental: (§1) Fig. 5 Effect of steroidal hormones on gonococcal antimicrobial susceptibility.
(§2) To determine the minimal inhibitory concentrations (MICs) by the steroidal hormones and their effect on antimicrobial susceptibility, 5 x 10^5 CFU and 1:5 serial dilutions of gonococcal strains were spotted on GC agar plates containing different concentrations of antibiotics and/or hormones as indicated. Antimicrobial susceptibility was assessed after 24 h incubation.

wild type FA19 = experiment: Antimicrobial susceptibility spot assay with hormone plus azithromycin or polymyxin B, wild type FA19; format: cell-based, Neisseria gonorrhoeae
Experimental: as §1, §2

rpoH-lacZ expression = format: cell-based, Neisseria gonorrhoeae
[2] = rpoH-lacZ, ΔmtrR + mtrR D171A in trans, 6.25 µM hormone, single replicate
[3] = rpoH-lacZ, ΔmtrR + mtrR D171A in trans, 12.5 µM hormone, single replicate
[4] = rpoH-lacZ, ΔmtrR + mtrR D171A in trans, 25 µM hormone, single replicate
[5] = rpoH-lacZ, ΔmtrR + mtrR D171A in trans, 50 µM hormone, single replicate

C[C@]12CC[C@@H]3c4ccc(O)cc4CC[C@H]3[C@@H]1CC[C@@H]2O [β-Estradiol, β-estradiol]
growth curve reading after BLANKING (FA19-rpoH-lacZ; 5.95 hr, 50 µM): 0.083
growth curve reading, raw replicates (FA19-rpoH-lacZ; 5.95 hr, 50 µM): 0.110 and 0.122
growth curve reading, raw replicates (FA19-rpoH-lacZ; 6.82 hr, 0.1 µM): 0.137 and 0.133
growth curve reading, raw replicates (FA19-rpoH-lacZ; 6.82 hr, 1 µM): 0.143 and 0.139
growth curve reading after BLANKING (FA19-rpoH-lacZ; 6.82 hr, 10 µM): 0.092
growth curve reading, raw replicates (FA19-rpoH-lacZ; 6.82 hr, 10 µM): 0.127 and 0.123
growth curve reading after BLANKING (FA19-rpoH-lacZ; 6.82 hr, 25 µM): 0.114
growth curve reading, raw replicates (FA19-rpoH-lacZ; 6.82 hr, 25 µM): 0.156 and 0.139
growth curve reading, raw replicates (FA19-rpoH-lacZ; 6.82 hr, 50 µM): 0.124 and 0.136
Mean Miller units (ngo1249-lacZ expression; 0.1 µM hormone): 5 Miller units
Mean Miller units (ngo1249-lacZ expression; 1 µM hormone): 5 Miller units
Mean Miller units (ngo1249-lacZ expression; 10 µM hormone): 5.32 Miller units
Mean Miller units (ngo1249-lacZ expression; 50 µM hormone): 4.874 Miller units
Mean Miller units (ngo1249-lacZ expression; 100 µM hormone): 4.606 Miller units
change in antibiotic resistance in presence of sub-lethal hormone [1]: did not show change
resistance to polymyxin B in presence of hormone (wild type FA19; strain FA19): increased resistance
resistance to azithromycin in presence of sub-lethal hormone (wild type FA19; wild-type FA19, GC agar, 24 h, visual): elevated levels of resistance
Miller units, Mean (rpoH-lacZ expression; Mean of plate rows 5-8, plate columns 1-6 (first strain), 6.25 µM hormone): 42 Miller units
Miller units, Mean (rpoH-lacZ expression; Mean of plate rows 5-8, plate columns 1-6 (first strain), 12.5 µM hormone): 61 Miller units
Miller units, Mean (rpoH-lacZ expression; Mean of plate rows 5-8, plate columns 1-6 (first strain), 25 µM hormone): 70 Miller units
Miller units, Mean (rpoH-lacZ expression; Mean of plate rows 5-8, plate columns 1-6 (first strain), 50 µM hormone): 78 Miller units
Miller units, Mean (rpoH-lacZ expression; Mean of plate rows 5-8, plate columns 7-12 (second strain), 6.25 µM hormone): 73.6 Miller units
Miller units, Mean (rpoH-lacZ expression; Mean of plate rows 5-8, plate columns 7-12 (second strain), 12.5 µM hormone): 75.3 Miller units
Miller units, Mean (rpoH-lacZ expression; Mean of plate rows 5-8, plate columns 7-12 (second strain), 25 µM hormone): 76.5 Miller units
Miller units, Mean (rpoH-lacZ expression; Mean of plate rows 5-8, plate columns 7-12 (second strain), 50 µM hormone): 79.6 Miller units
induction of rpoH expression (rpoH-lacZ expression; complemented (MtrR+) strains, increasing hormone): could be induced
induction of rpoH expression (rpoH-lacZ expression; loss of MtrR or MtrR-D171A strain): abrogated
Miller units (rpoH-lacZ expression; [2]): 73 Miller units
β-galactosidase activity (Miller units) (rpoH-lacZ expression; [2]): 64 Miller units and 67 Miller units and 90 Miller units
Miller units (rpoH-lacZ expression; [3]): 67 Miller units
β-galactosidase activity (Miller units) (rpoH-lacZ expression; [3]): 68 Miller units and 72 Miller units and 94 Miller units
Miller units (rpoH-lacZ expression; [4]): 76 Miller units
β-galactosidase activity (Miller units) (rpoH-lacZ expression; [4]): 84 Miller units and 81 Miller units and 65 Miller units
Miller units (rpoH-lacZ expression; [5]): 82 Miller units
β-galactosidase activity (Miller units) (rpoH-lacZ expression; [5]): 80 Miller units and 76 Miller units
β-galactosidase activity (Miller units) (rpoH-lacZ expression; rpoH-lacZ, ΔmtrR + mtrR WT in trans, 6.25 µM hormone, single replicate): 29 Miller units and 43 Miller units and 45 Miller units and 49 Miller units
β-galactosidase activity (Miller units) (rpoH-lacZ expression; rpoH-lacZ, ΔmtrR + mtrR WT in trans, 12.5 µM hormone, single replicate): 60 Miller units and 54 Miller units and 64 Miller units and 67 Miller units
β-galactosidase activity (Miller units) (rpoH-lacZ expression; rpoH-lacZ, ΔmtrR + mtrR WT in trans, 25 µM hormone, single replicate): 91 Miller units and 57 Miller units and 68 Miller units and 64 Miller units
β-galactosidase activity (Miller units) (rpoH-lacZ expression; rpoH-lacZ, ΔmtrR + mtrR WT in trans, 50 µM hormone, single replicate): 89 Miller units and 63 Miller units and 78 Miller units and 82 Miller units
β-galactosidase activity (Miller units) (rpoH-lacZ expression; rpoH-lacZ, ΔmtrR strain, 6.25 µM hormone, single replicate): 253 Miller units and 160 Miller units and 91 Miller units
β-galactosidase activity (Miller units) (rpoH-lacZ expression; rpoH-lacZ, ΔmtrR strain, 12.5 µM hormone, single replicate): 161 Miller units and 99 Miller units
β-galactosidase activity (Miller units) (rpoH-lacZ expression; rpoH-lacZ, ΔmtrR strain, 25 µM hormone, single replicate): 232 Miller units and 156 Miller units and 133 Miller units
β-galactosidase activity (Miller units) (rpoH-lacZ expression; rpoH-lacZ, ΔmtrR strain, 50 µM hormone, single replicate): 195 Miller units and 151 Miller units and 114 Miller units
Miller units (rpoH-lacZ expression; rpoH-lacZ, ΔmtrR, 6.25 µM hormone, single replicate): 150 Miller units
Miller units (rpoH-lacZ expression; rpoH-lacZ, ΔmtrR, 12.5 µM hormone, single replicate): 165 Miller units
Miller units (rpoH-lacZ expression; rpoH-lacZ, ΔmtrR, 25 µM hormone, single replicate): 177 Miller units
Miller units (rpoH-lacZ expression; rpoH-lacZ, ΔmtrR, 50 µM hormone, single replicate): 178 Miller units
Miller units (rpoH-lacZ expression; single well, plate rows 5-8, plate columns 1-6 (first strain), 6.25 µM hormone): 29 Miller units and 43 Miller units and 45 Miller units and 49 Miller units
Miller units (rpoH-lacZ expression; single well, plate rows 5-8, plate columns 1-6 (first strain), 12.5 µM hormone): 60 Miller units and 54 Miller units and 64 Miller units and 67 Miller units
Miller units (rpoH-lacZ expression; single well, plate rows 5-8, plate columns 1-6 (first strain), 25 µM hormone): 91 Miller units and 57 Miller units and 68 Miller units and 64 Miller units
Miller units (rpoH-lacZ expression; single well, plate rows 5-8, plate columns 1-6 (first strain), 50 µM hormone): 89 Miller units and 63 Miller units and 78 Miller units and 82 Miller units
Miller units (rpoH-lacZ expression; single well, plate rows 5-8, plate columns 7-12 (second strain), 6.25 µM hormone): 64 Miller units and 67 Miller units and 73 Miller units and 90 Miller units
Miller units (rpoH-lacZ expression; single well, plate rows 5-8, plate columns 7-12 (second strain), 12.5 µM hormone): 68 Miller units and 72 Miller units and 67 Miller units and 94 Miller units
Miller units (rpoH-lacZ expression; single well, plate rows 5-8, plate columns 7-12 (second strain), 25 µM hormone): 84 Miller units and 81 Miller units and 76 Miller units and 65 Miller units
Miller units (rpoH-lacZ expression; single well, plate rows 5-8, plate columns 7-12 (second strain), 50 µM hormone): 80 Miller units and 82 Miller units and 76 Miller units
β-galactosidase activity, rpoH-lacZ, Mean (rpoH-lacZ expression; strain WT (FA19/pLES94-rpoH), hormone 6.25 µM): 83 Miller units
β-galactosidase activity, rpoH-lacZ, Mean (rpoH-lacZ expression; strain WT (FA19/pLES94-rpoH), hormone 12.5 µM): 113 Miller units
β-galactosidase activity, rpoH-lacZ, Mean (rpoH-lacZ expression; strain WT (FA19/pLES94-rpoH), hormone 25 µM): 148 Miller units
β-galactosidase activity, rpoH-lacZ, Mean (rpoH-lacZ expression; strain WT (FA19/pLES94-rpoH), hormone 50 µM): 162 Miller units
activation of rpoH (rpoH-lacZ expression; strain producing MtrR R176E): clearly weaker activation
β-galactosidase activity, rpoH-lacZ, Mean (rpoH-lacZ expression; strain ΔmtrR (FA19 ∆mtrR/pLES94-rpoH), hormone 6.25 µM): 163 Miller units
β-galactosidase activity, rpoH-lacZ, Mean (rpoH-lacZ expression; strain ΔmtrR (FA19 ∆mtrR/pLES94-rpoH), hormone 12.5 µM): 152 Miller units
β-galactosidase activity, rpoH-lacZ, Mean (rpoH-lacZ expression; strain ΔmtrR (FA19 ∆mtrR/pLES94-rpoH), hormone 25 µM): 175 Miller units
β-galactosidase activity, rpoH-lacZ, Mean (rpoH-lacZ expression; strain ΔmtrR (FA19 ∆mtrR/pLES94-rpoH), hormone 50 µM): 160 Miller units
β-galactosidase activity, rpoH-lacZ, Mean (rpoH-lacZ expression; strain ΔmtrR + mtrR D171A (pGCC3-mtrR D171A), hormone 6.25 µM): 74 Miller units
β-galactosidase activity, rpoH-lacZ, Mean (rpoH-lacZ expression; strain ΔmtrR + mtrR D171A (pGCC3-mtrR D171A), hormone 12.5 µM): 75 Miller units
β-galactosidase activity, rpoH-lacZ, Mean (rpoH-lacZ expression; strain ΔmtrR + mtrR D171A (pGCC3-mtrR D171A), hormone 25 µM): 76 Miller units
β-galactosidase activity, rpoH-lacZ, Mean (rpoH-lacZ expression; strain ΔmtrR + mtrR D171A (pGCC3-mtrR D171A), hormone 50 µM): 80 Miller units
β-galactosidase activity, rpoH-lacZ, Mean (rpoH-lacZ expression; strain ΔmtrR + mtrR WT (pGCC3-mtrR), hormone 6.25 µM): 42 Miller units
β-galactosidase activity, rpoH-lacZ, Mean (rpoH-lacZ expression; strain ΔmtrR + mtrR WT (pGCC3-mtrR), hormone 12.5 µM): 61 Miller units
β-galactosidase activity, rpoH-lacZ, Mean (rpoH-lacZ expression; strain ΔmtrR + mtrR WT (pGCC3-mtrR), hormone 25 µM): 70 Miller units
β-galactosidase activity, rpoH-lacZ, Mean (rpoH-lacZ expression; strain ΔmtrR + mtrR WT (pGCC3-mtrR), hormone 50 µM): 78 Miller units
